# Patent US20260256792A1, “TREATMENT OF CHRONIC SPONTANEOUS URTICARIA BY ADMINISTERING (R)-2-[3-[4-AMINO-3-(2-FLUORO-4-PHENOXY-PHENYL)PYRAZOLO[3,4-D]PYRIMIDIN-1-YL]PIPERIDINE-1-CARBONYL]-4-METHYL-4-[4-(OXETAN-3-YL)PIPERAZIN-1-YL]PENT-2-ENENITRILE” (priority 2023, published 2026)
# Tested on: moderate-to-severe chronic spontaneous urticaria (CSU)
# Assay: Phase 2 CSU study: urticaria activity score over 7 days (UAS7)
# Type: in vivo, human
# Parameters: key to UAS7 Median / UAS7 Change from baseline Median / UAS7 change from baseline, Q1 / UAS7 change from baseline, Q3 / UAS7 change from baseline, Max / UAS7 Change from baseline LS Mean (SE): UAS7 points; daily UAS score ranges 0–6 points/day, over 7 days
# Text: The study comprises a 12 week, randomized, double-blind, placebo-controlled, multi-center, dose-ranging efficacy and safety phase, followed by a 40 week open label extension (OLE) phase (see FIG. 1). The study consists of three phases and an optional OLE phase. […] Clinically, CSU is characterized by the spontaneous and recurrent appearance of pruritic hives. The proposed primary endpoints were the UAS7 at Week 12 in EU and EU reference countries and the ISS7 in the US. Regardless of where a participant was from, all assessments were the same. The UAS7 score is a composite score containing both the HSS7 and the ISS7. This allowed a global assessment of the two key components of urticaria: hives and itch. […] The UAS is a validated PRO measure. […] The daily UAS scores range from 0 to 6 point/day. […] Patients were to complete the UAS using the e-diary. […] The following secondary endpoints were to be analyzed using the same approach as for the primary endpoint: • Change from baseline in UAS7 at Week 4 • Change from baseline in UAS7 at Week 12 (for US and US reference countries) • Change from baseline in ISS7 at Week 12 (except US and US reference countries) • Change from baseline in HSS7 at Week 12 The following responder secondary endpoints were to be analyzed using the Cochran-Mantel-Haenszel test adjusted by region: • Proportion of participants with UAS7<6 at Week 12 • Proportion of participants with UAS7=0 at Week 12 Participants who received selected prohibited medications and/or rescue medications were to be considered as non-responders for time points after the medication usage. For other participants, all available data including those collected during the off-treatment period were to be used to determine the responder/non-responder status. Missing data were to be considered as non-responders.
# [1] = Week 7, 400 mg BID, Prior Omalizumab Use
# [2] = Week 7, 400 mg BID, omalizumab-naive participants
# [3] = Week 7, 400 mg QPM, ITT population
# [4] = Week 7, 400 mg QPM, Omalizumab-Naïve
# [5] = Week 7, 400 mg QPM, Prior Omalizumab Use
# [6] = Week 7, 400 mg QPM, omalizumab-naive participants
# [7] = Week 7, 400 mg TID, ITT population
# [8] = Week 7, 400 mg TID, Omalizumab-Naïve
# [9] = Week 7, 400 mg TID, Prior Omalizumab Use
# [10] = Week 7, 400 mg TID, omalizumab-naive participants
# [11] = Week 8, 400 mg BID, ITT population
# [12] = Week 8, 400 mg BID, Omalizumab-Naïve
# [13] = Week 8, 400 mg BID, Prior Omalizumab Use
# [14] = Week 8, 400 mg BID, omalizumab-naive participants
compound,measurement,setting,value
"CC(C)(C=C(C#N)C(=O)N1CCC[C@@H](n2nc(-c3ccc(Oc4ccccc4)cc3F)c3c(N)ncnc32)C1)N1CCN(C2COC2)CC1 [rilzabrutinib, (R)-2-[3-[4-amino-3-(2-fluoro-4-phenoxy-phenyl)pyrazolo[3,4-d]pyrimidin-1-yl]piperidine-1-carbonyl]-4-methyl-4-[4-(oxetan-3-yl)piperazin-1-yl]pent-2-enenitrile]",UAS7 Percent change from baseline Median,"Week 7, 400 mg BID, Omalizumab-Naïve",−48.28%
same,UAS7 Change from baseline Mean (SD),[1],−20.40 (19.58)
same,UAS7 Change from baseline Median,[1],−25.00
same,UAS7 Mean (SD),[1],11.60 (15.79)
same,UAS7 Median,[1],2.00
same,UAS7 Percent change from baseline Mean (SD),[1],−58.52 (53.51) %
same,UAS7 Percent change from baseline Median,[1],−92.59%
same,"Non-responder, UAS7 reduction from baseline of 10 points or more",[2],15 (42.9) n (%)
same,"OR for rilzabrutinib vs. placebo, UAS7 reduction of 10 points or more",[2],2.154
same,"RRD (%) for rilzabrutinib vs. placebo, UAS7 reduction of 10 points or more",[2],18.5 %
same,"Responder, UAS7 reduction from baseline of 10 points or more",[2],20 (57.1) n (%)
same,"Non-responder, UAS7 reduction from baseline of 10 points or more",[3],22 (57.9) n (%)
same,"OR for rilzabrutinib vs. placebo, UAS7 reduction of 10 points or more",[3],1.159
same,"RRD (%) for rilzabrutinib vs. placebo, UAS7 reduction of 10 points or more",[3],3.5 %
same,"Responder, UAS7 reduction from baseline of 10 points or more",[3],16 (42.1) n (%)
same,UAS7 Change from baseline Mean (SD),[4],−10.92 (10.06)
same,UAS7 Change from baseline Median,[4],−9.00
same,UAS7 Mean (SD),[4],21.11 (10.03)
same,UAS7 Median,[4],18.20
same,UAS7 Percent change from baseline Mean (SD),[4],−33.33 (28.49) %
same,UAS7 Percent change from baseline Median,[4],−36.11%
same,UAS7 Change from baseline Mean (SD),[5],−24.00 (NC)
same,UAS7 Change from baseline Median,[5],−24.00
same,UAS7 Mean (SD),[5],17.00 (NC)
same,UAS7 Median,[5],17.00
same,UAS7 Percent change from baseline Mean (SD),[5],−58.54 (NC) %
same,UAS7 Percent change from baseline Median,[5],−58.54%
same,"Non-responder, UAS7 reduction from baseline of 10 points or more",[6],22 (59.5) n (%)
same,"OR for rilzabrutinib vs. placebo, UAS7 reduction of 10 points or more",[6],1.096
same,"RRD (%) for rilzabrutinib vs. placebo, UAS7 reduction of 10 points or more",[6],2.2 %
same,"Responder, UAS7 reduction from baseline of 10 points or more",[6],15 (40.5) n (%)
same,"Non-responder, UAS7 reduction from baseline of 10 points or more",[7],16 (39.0) n (%)
same,"OR for rilzabrutinib vs. placebo, UAS7 reduction of 10 points or more",[7],2.334
same,"RRD (%) for rilzabrutinib vs. placebo, UAS7 reduction of 10 points or more",[7],18.7 %
same,"Responder, UAS7 reduction from baseline of 10 points or more",[7],25 (61.0) n (%)
same,UAS7 Change from baseline Median,[8],−15.00
same,UAS7 Mean (SD),[8],13.54 (9.34)
same,UAS7 Median,[8],14.00
same,UAS7 Percent change from baseline Mean (SD),[8],−54.22 (30.59) %
same,UAS7 Percent change from baseline Median,[8],−52.50%
same,UAS7 Change from baseline Mean (SD),[9],−20.86 (14.89)
same,UAS7 Change from baseline Median,[9],−16.00
same,UAS7 Mean (SD),[9],12.17 (10.21)
same,UAS7 Percent change from baseline Mean (SD),[9],−58.95 (28.44) %
same,UAS7 Percent change from baseline Median,[9],−51.29%
same,"Non-responder, UAS7 reduction from baseline of 10 points or more",[10],13 (37.1) n (%)
same,"OR for rilzabrutinib vs. placebo, UAS7 reduction of 10 points or more",[10],2.765
same,"RRD (%) for rilzabrutinib vs. placebo, UAS7 reduction of 10 points or more",[10],22.3 %
same,"Responder, UAS7 reduction from baseline of 10 points or more",[10],22 (62.9) n (%)
same,"Non-responder, UAS7 reduction from baseline of 10 points or more",[11],17 (41.5) n (%)
same,"OR for rilzabrutinib vs. placebo, UAS7 reduction of 10 points or more",[11],1.985
same,"RRD (%) for rilzabrutinib vs. placebo, UAS7 reduction of 10 points or more",[11],17.5 %
same,"Responder, UAS7 reduction from baseline of 10 points or more",[11],24 (58.5) n (%)
same,UAS7 Change from baseline Mean (SD),[12],−15.64 (11.76)
same,UAS7 Change from baseline Median,[12],−16.00
same,UAS7 Mean (SD),[12],13.98 (13.06)
same,UAS7 Median,[12],10.00
same,UAS7 Percent change from baseline Mean (SD),[12],−54.37 (38.23) %
same,UAS7 Percent change from baseline Median,[12],−64.29%
same,UAS7 Change from baseline Mean (SD),[13],−21.00 (19.13)
same,UAS7 Change from baseline Median,[13],−26.00
same,UAS7 Mean (SD),[13],11.00 (15.67)
same,UAS7 Median,[13],1.00
same,UAS7 Percent change from baseline Mean (SD),[13],−61.16 (51.62) %
same,UAS7 Percent change from baseline Median,[13],−96.30%
same,"Non-responder, UAS7 reduction from baseline of 10 points or more",[14],14 (40.0) n (%)
same,"OR for rilzabrutinib vs. placebo, UAS7 reduction of 10 points or more",[14],2.484
